Key:
[1] = system: Leptosphaeria nodorum—LEPTNO; experiment: Glume Blotch of Wheat, in vivo whole plant, 24 Hour Protectant; settings: 100 ppm spray, wheat, 24 hour protectant, control of fungal infection vs untreated plants; for pest or weed control at 100 ppm: Leptosphaeria, read-out: LEPTNO in vivo 1 Day Protectant
[2] = system: Phytophthora infestans—PHYTIN; experiment: whole plant or invertebrate; assay type: in vivo; settings: Phytophthora, in Solanum lycopersicum, 24 h, read-out: PHYTIN in vivo 1 Day Protectant
[3] = system: Magnaporthe grisea (Pyricularia oryzae—PYRIOR); experiment: microbe, parasite or virus in culture; assay type: cell-based; settings: Pyricularia oryzae, read-out: PYRIOR in vitro Growth Inhibition
[4] = system: Puccinia recondita—PUCCRT; experiment: Brown Rust of Wheat, in vivo whole plant, 24 Hour Protectant; settings: Puccinia; 100 ppm spray, wheat, 24 hour protectant; control of fungal infection vs untreated plants; read-out: PUCCRT in vivo 1 Day Protectant
[5] = system: Erysiphe graminis—ERYSGT; experiment: Powdery Mildew of Wheat, in vivo whole plant, 24 Hour Protectant; settings: 100 ppm spray, wheat, 24 hour protectant, control of fungal infection vs untreated plants; for pest or weed control at 100 ppm: Erysiphe, read-out: ERYSGT in vivo 1 Day Protectant
[6] = system: Rhizoctonia solani (RHIZSO); experiment: microbe, parasite or virus in culture; assay type: cell-based; settings: Rhizoctonia solani, read-out: RHIZSO in vitro Growth Inhibition
[7] = system: Mycosphaerella graminicola (Septoria tritici—SEPTTR); experiment: In vitro fungal growth inhibition, Mycosphaerella graminicola (SEPTTR); assay type: cell-based; settings: Zymoseptoria tritici; 25 ppm in growth medium; read-out: SEPTTR in vitro Growth Inhibition
[8] = system: Phytophthora infestans (PHYTIN); experiment: microbe, parasite or virus in culture; assay type: cell-based; settings: Phytophthora infestans, read-out: PHYTIN in vitro Growth Inhibition
[9] = system: Septoria tritici—SEPTTR; experiment: Leaf Blotch of Wheat, in vivo whole plant, 24 Hour Protectant; settings: Zymoseptoria tritici, 24 h, 100 ppm spray, wheat, 24 hour protectant; control of fungal infection vs untreated plants; read-out: SEPTTR in vivo 1 Day Protectant
[10] = system: Stagonospora nodorum (Leptosphaeria nodorum—LEPTNO); experiment: In vitro fungal growth inhibition, Stagonospora nodorum (LEPTNO); assay type: cell-based; settings: Leptosphaeria; 25 ppm in growth medium; read-out: LEPTNO in vitro Growth Inhibition
[11] = system: Ustilago maydis (USTIMA); experiment: microbe, parasite or virus in culture; assay type: cell-based; settings: Mycosarcoma maydis, read-out: USTIMA in vitro Growth Inhibition

## COc1ccnc(C(=O)NC2COC(=O)C[C@H](NC(=O)OCc3ccccc3)C(=O)OC2)c1O (stereo partly drawn) [Compound 376]
[1]
  pest or weed control at 100 ppm: 25 to 74%
[2]
  pest or weed control at 100 ppm: < 25%
[3]
  inhibition at 25 ppm: < 80%
[4]
  pest or weed control at 100 ppm: < 25%
[5]
  pest or weed control at 100 ppm: 25 to 74%
[6]
  inhibition at 25 ppm: < 80%
other
  melting point: 190 to 192 °C
[7]
  inhibition at 25 ppm: < 80%
[8]
  inhibition at 25 ppm: < 80%
[9]
  pest or weed control at 100 ppm: 25 to 74%
[10]
  inhibition at 25 ppm: < 80%
[11]
  inhibition at 25 ppm: < 80%

## COc1ccnc(C(=O)NC2COC(=O)[C@H]3CCCC[C@@H]3C(=O)OC2)c1O [Compound 377]
[1]
  pest or weed control at 100 ppm: 25 to 74%
[2]
  pest or weed control at 100 ppm: < 25%
[3]
  inhibition at 25 ppm: < 80%
[4]
  pest or weed control at 100 ppm: < 25%
[5]
  pest or weed control at 100 ppm: < 25%
[6]
  inhibition at 25 ppm: < 80%
other
  melting point: 234 to 235 °C
[7]
  inhibition at 25 ppm: < 80%
[8]
  inhibition at 25 ppm: > 80%
[9]
  pest or weed control at 100 ppm: < 25%
[10]
  inhibition at 25 ppm: < 80%
[11]
  inhibition at 25 ppm: < 80%

## COc1ccnc(C(=O)N[C@H]2CC(=O)OCC(NC(=O)OC(C)(C)C)COC2=O)c1O (stereo partly drawn) [Compound 379]
[1]
  pest or weed control at 100 ppm: 25 to 74%
[2]
  pest or weed control at 100 ppm: < 25%
[3]
  inhibition at 25 ppm: < 80%
[4]
  pest or weed control at 100 ppm: 25 to 74%
[5]
  pest or weed control at 100 ppm: 25 to 74%
[6]
  inhibition at 25 ppm: < 80%
other
  melting point: 118 to 121 °C
[7]
  inhibition at 25 ppm: < 80%
[8]
  inhibition at 25 ppm: < 80%
[9]
  pest or weed control at 100 ppm: 25 to 74%
[10]
  inhibition at 25 ppm: < 80%
[11]
  inhibition at 25 ppm: < 80%

## COc1ccnc(C(=O)NC2COC(=O)CC3(CCCCC3)CC(=O)OC2)c1O [Compound 380]
[1]
  pest or weed control at 100 ppm: 25 to 74%
[2]
  pest or weed control at 100 ppm: < 25%
[3]
  inhibition at 25 ppm: < 80%
[4]
  pest or weed control at 100 ppm: < 25%
[5]
  pest or weed control at 100 ppm: 25 to 74%
[6]
  inhibition at 25 ppm: < 80%
other
  melting point: 107 to 108 °C
[7]
  inhibition at 25 ppm: < 80%
[8]
  inhibition at 25 ppm: < 80%
[9]
  pest or weed control at 100 ppm: < 25%
[10]
  inhibition at 25 ppm: < 80%
[11]
  inhibition at 25 ppm: < 80%

## COc1ccnc(C(=O)N[C@H]2COC(=O)[C@H](Cc3ccccc3)[C@@H](OCC(C)C)[C@H](C)OC2=O)c1O [Compound 384]
[1]
  LEPTNO in vivo 1 Day Protectant: + +
[2]
  pest or weed control at 100 ppm: < 25%
[3]
  inhibition at 25 ppm: > 80%
[4]
  pest or weed control at 100 ppm: 25 to 74%
[5]
  ERYSGT in vivo 1 Day Protectant: + +
[6]
  inhibition at 25 ppm: < 80%
other
  melting point: 172 to 174 °C
[7]
  inhibition at 25 ppm: > 80%
[8]
  inhibition at 25 ppm: < 80%
[9]
  pest or weed control at 100 ppm: 25 to 74%
[10]
  inhibition at 25 ppm: > 80%
[11]
  inhibition at 25 ppm: < 80%

## COc1ccnc(C(=O)N[C@H]2COC(=O)[C@H](Cc3ccccc3)[C@@H](OC(C)=O)[C@H](C)OC2=O)c1O [Compound 385]
[1]
  LEPTNO in vivo 1 Day Protectant: + +
[2]
  pest or weed control at 100 ppm: 25 to 74%
[3]
  inhibition at 25 ppm: < 80%
[4]
  pest or weed control at 100 ppm: 25 to 74%
[5]
  pest or weed control at 100 ppm: < 25%
[6]
  inhibition at 25 ppm: < 80%
other
  melting point: 194 to 196 °C
[7]
  inhibition at 25 ppm: > 80%
[8]
  inhibition at 25 ppm: < 80%
[9]
  pest or weed control at 100 ppm: 25 to 74%
[10]
  inhibition at 25 ppm: > 80%
[11]
  inhibition at 25 ppm: < 80%

## COc1ccnc(C(=O)N[C@H]2COC(=O)[C@H](Cc3ccccc3)[C@@H](OC(=O)C(C)(C)C)[C@H](C)OC2=O)c1O [Compound 388]
[1]
  LEPTNO in vivo 1 Day Protectant: + +
[2]
  pest or weed control at 100 ppm: < 25%
[3]
  inhibition at 25 ppm: < 80%
[4]
  pest or weed control at 100 ppm: 25 to 74%
[5]
  pest or weed control at 100 ppm: < 25%
[6]
  inhibition at 25 ppm: < 80%
other
  melting point: 212 to 214 °C
[7]
  inhibition at 25 ppm: > 80%
[8]
  inhibition at 25 ppm: < 80%
[9]
  pest or weed control at 100 ppm: 25 to 74%
[10]
  inhibition at 25 ppm: > 80%
[11]
  inhibition at 25 ppm: < 80%

## COc1ccnc(C(=O)N[C@H]2COC(=O)[C@H](Cc3ccccc3)[C@@H](OC(=O)c3ccccc3)[C@H](C)OC2=O)c1O [Compound 394]
[1]
  LEPTNO in vivo 1 Day Protectant: + +
[2]
  pest or weed control at 100 ppm: < 25%
[3]
  inhibition at 25 ppm: < 80%
[4]
  pest or weed control at 100 ppm: 25 to 74%
[5]
  pest or weed control at 100 ppm: < 25%
[6]
  inhibition at 25 ppm: < 80%
other
  melting point: 181 to 185 °C
[7]
  inhibition at 25 ppm: > 80%
[8]
  inhibition at 25 ppm: < 80%
[9]
  pest or weed control at 100 ppm: 25 to 74%
[10]
  inhibition at 25 ppm: > 80%
[11]
  inhibition at 25 ppm: < 80%

Reference: patent publication US6706740B2, “Fungicidal heterocyclic aromatic amides and their compositions, methods of use and preparation” (Dow AgroSciences LLC, priority 1999, dated 2004)
